Laboratory results taken from patent publication US8226943B2, “Antibodies to notch receptors” (OncoMed Pharmaceuticals, Inc., priority 2008, dated 2012).

Tests used:
[1] = system: hJAG1-induced Notch2 signaling; test: Luciferase reporter assay, hJAG1-induced Notch2 signaling in Hela cells; assay type: cell-based, human; details: 40 μg/ml
Procedure: Luciferase reporter assays were used to assay the 59R1 antibody for its ability to block hDLL4-, hJAG1-, and hJAG2-induced Notch2 signaling.
Hela cells that stably overexpress human Notch2 were transiently transfected with firefly luciferase with a synthetic 8×CBS promoter, pSPORT6 MAML-1, and Renilla luciferase-CMV as a transfection control. Cells were incubated with either 200 ng of immobilized hJAG1 (R&D systems) or hJAG2 (R&D systems) for 16 hours and then assayed using Dual-Glo (Promega) according to the manufacturer's instructions. 59R1 IgG2 antibody was at a concentration of 40 μg/ml. The gamma secretase inhibitor (GSI) dibenzazepine (DBZ) was used as a control at 1 μM.

[2] = system: breast tumor xenograft line OMP-B44; test: OMP-B44 breast tumor xenograft growth; assay type: in vivo, NOD/SCID mice; details: established tumors, 15 mg/kg once a week
Procedure: (§1) The 59R1 IgG2 antibody was also tested in vivo in the breast tumor xenograft lines OMP-B34, OMP-B39, OMP-B44, PE13, and UM-T1, the pancreas tumor xenograft line OMP-PN8, and the colon tumor xenograft line OMP-C8. These tumor xenograft lines were established by adhering to procedures described in Al-Hajj et al., 2003, Proc. Natl. Acad. Sci. USA, 100:3983-3988. Female NOD/SCID immuno-compromised mice 7-10 weeks old were used for the establishment of the breast tumor xenografts and male NOD/SCID mice were used for the OMP-Pn8 and OMP-C8 tumor-models (Harlan, Indianapolis, Ind.). The 59R1 IgG2 antibody was also tested in vivo in a Colo-205 colon tumor xenograft model. Female immunodeficient bg/nu XID mice on a Swiss CD-1 background were used for the Colo-205 xenograft tumor model. In case of the breast cancer models, slow-releasing estrogen pellets (0.36 mg) had to be implanted. Mice were subcutaneously injected on the right flank with 50,000 (OMP-B34, OMP-B39, OMP-B44, PE13, and UM-T1) or 1×10^7 (Colo-205) viable cells, respectively, in a mixture of PBS (without magnesium or calcium) and Matrigel at a 1:1 ratio. […] Antibodies were administered weekly and tumors measured twice weekly. […] Tumor volume was calculated as described Al-Hajj et al. (2003). Data are expressed as the mean and the mean±S.E.M. Group means were compared using Student's two-tailed, unpaired t-test. […]

[3] = system: breast tumor xenograft line UM-T1; test: UM-T1 breast tumor xenograft growth; assay type: in vivo, NOD/SCID mice
Procedure: as §1

[4] = system: breast tumors T1, PE13, and B51; test: Gene Set Enrichment Analysis in treated breast tumors; assay type: in vivo, mice
From the text: Several pathways/gene sets that are regulated by antibody 59R1 in tumor cells were identified (Table 9) using Gene Set Enrichment Analysis (Mootha et al., 2003, Nature Genetics 34:267-73; Subramanian et al., 2005, Proc. Natl. Acad. Sci. USA 102:15545-50) in the breast tumors T1, PE13, and B51.

[5] = target: human Notch3 (Homo sapiens, UniProt Q9UM47); test: DLL4-Fc induced receptor activation in transfected PC3 cells, human Notch3; assay type: cell-based; parameters: expressed in transfected cells; host or cells: PC3 tumor cells, transient; details: immobilized DLL4-Fc
Chain of human Notch3 (Q9UM47 40-2321): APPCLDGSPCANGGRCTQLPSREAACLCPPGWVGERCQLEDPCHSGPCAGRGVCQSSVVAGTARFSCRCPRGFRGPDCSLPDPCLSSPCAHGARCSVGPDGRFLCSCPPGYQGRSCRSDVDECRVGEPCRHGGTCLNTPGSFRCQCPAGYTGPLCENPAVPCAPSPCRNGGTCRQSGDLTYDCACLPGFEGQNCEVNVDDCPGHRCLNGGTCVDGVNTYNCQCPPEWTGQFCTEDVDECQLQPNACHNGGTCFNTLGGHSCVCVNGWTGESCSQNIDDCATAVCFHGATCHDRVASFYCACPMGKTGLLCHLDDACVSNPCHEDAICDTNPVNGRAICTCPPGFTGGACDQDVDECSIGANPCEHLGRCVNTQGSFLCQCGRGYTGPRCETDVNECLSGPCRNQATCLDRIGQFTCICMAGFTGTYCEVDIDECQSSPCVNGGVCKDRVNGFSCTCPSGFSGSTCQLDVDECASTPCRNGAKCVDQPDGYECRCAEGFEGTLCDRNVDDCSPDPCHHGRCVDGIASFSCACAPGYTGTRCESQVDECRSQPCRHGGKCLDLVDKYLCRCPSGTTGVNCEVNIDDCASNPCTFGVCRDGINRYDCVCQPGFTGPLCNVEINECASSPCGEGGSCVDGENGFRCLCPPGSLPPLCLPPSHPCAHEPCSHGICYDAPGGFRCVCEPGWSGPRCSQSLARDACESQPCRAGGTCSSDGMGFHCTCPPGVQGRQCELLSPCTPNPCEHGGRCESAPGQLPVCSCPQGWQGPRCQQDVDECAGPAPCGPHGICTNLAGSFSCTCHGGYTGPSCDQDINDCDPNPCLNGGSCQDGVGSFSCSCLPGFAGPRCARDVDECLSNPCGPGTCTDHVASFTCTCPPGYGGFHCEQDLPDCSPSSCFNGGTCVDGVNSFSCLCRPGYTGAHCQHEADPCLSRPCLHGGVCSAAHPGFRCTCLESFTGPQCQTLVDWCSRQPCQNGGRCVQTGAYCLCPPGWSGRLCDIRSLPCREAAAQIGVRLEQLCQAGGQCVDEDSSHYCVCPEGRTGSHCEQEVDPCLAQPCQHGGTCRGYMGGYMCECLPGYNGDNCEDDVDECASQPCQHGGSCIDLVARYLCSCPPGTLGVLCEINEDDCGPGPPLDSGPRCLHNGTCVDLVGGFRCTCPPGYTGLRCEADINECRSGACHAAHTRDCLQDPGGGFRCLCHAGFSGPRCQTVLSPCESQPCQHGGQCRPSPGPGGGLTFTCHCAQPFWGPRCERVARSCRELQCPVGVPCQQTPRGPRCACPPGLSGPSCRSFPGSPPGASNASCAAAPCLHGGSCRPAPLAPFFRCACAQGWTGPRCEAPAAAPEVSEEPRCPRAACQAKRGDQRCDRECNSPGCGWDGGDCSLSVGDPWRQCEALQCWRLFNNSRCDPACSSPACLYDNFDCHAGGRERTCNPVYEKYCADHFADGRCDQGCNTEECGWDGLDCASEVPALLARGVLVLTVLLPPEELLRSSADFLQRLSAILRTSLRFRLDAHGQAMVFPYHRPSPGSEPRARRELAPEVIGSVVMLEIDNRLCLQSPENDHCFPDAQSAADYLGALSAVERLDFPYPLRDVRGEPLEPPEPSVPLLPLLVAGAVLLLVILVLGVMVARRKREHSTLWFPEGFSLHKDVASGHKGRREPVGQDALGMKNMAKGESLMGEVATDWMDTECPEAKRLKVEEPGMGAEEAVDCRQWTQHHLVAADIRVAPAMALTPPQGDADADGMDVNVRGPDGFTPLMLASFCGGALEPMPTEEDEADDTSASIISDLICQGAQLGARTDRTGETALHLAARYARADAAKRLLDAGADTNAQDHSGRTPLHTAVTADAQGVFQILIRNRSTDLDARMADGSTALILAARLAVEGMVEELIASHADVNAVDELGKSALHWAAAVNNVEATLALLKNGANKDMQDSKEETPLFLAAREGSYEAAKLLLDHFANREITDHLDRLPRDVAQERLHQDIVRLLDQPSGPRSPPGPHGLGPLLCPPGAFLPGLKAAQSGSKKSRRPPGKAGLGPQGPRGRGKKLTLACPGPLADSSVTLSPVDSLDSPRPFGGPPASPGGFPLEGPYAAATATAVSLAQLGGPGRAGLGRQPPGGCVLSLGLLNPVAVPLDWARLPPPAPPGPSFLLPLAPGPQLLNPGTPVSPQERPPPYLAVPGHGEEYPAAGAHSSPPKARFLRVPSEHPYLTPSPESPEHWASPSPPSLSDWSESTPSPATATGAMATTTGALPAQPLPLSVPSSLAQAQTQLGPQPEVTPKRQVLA
Procedure: 59R5 was determined to have similar activity in blocking Notch2 and Notch3 signaling as 59R1. Receptor activation was determined in luciferase-based assays. PC3 tumor cells were transiently transfected with a human or mouse Notch receptor (human Notch2, murine Notch2, human Notch3, or murine Notch3) and […] inducible reporter construct. Transfected cells were incubated with different concentrations of 59R1 or 59R5 antibody in the presence of passively immobilized DLL4-Fc protein. Notch receptor activation was determined by measuring luciferase activity.

| Substance | hJAG1-induced Notch2 reporter activity [1] | B44 breast cancer growth relative to control antibody [2] | T1 breast tumor growth ([3]; in the absence of estrogen treatment) | T1 breast tumor growth ([3]; in the presence of estrogen, 15 mg/kg once a week) | cell cycle gene pathways, myc-activating genes and several stem cell gene sets [4] | ligand-induced activation of human Notch3 receptor signaling [5] |
| --- | --- | --- | --- | --- | --- | --- |
| 59R1: human IgG2 antibody binding Notch2 and Notch3; heavy and light chain SEQ ID NO:16 and 18; ATCC PTA-9547 | inhibit | inhibit breast cancer growth | ineffective | effective at inhibiting tumor growth | down-regulated |  |
| 59R5: human antibody that specifically binds human Notch 2 and human Notch 3; heavy and light chain SEQ ID NO:49 and 18; ATCC PTA-10170 |  |  |  |  |  | blocked |
